Assay results taken from patent US20060172418A1, “Hypercoiling polymers and their use in cellular delivery” (priority 2002, published 2006).
“Also recorded” adds a separate entry of the source. Like-named read-outs stand apart in the source and are kept apart here.

Tests used:
[1] = system: CHO cells; test: Uptake and internalisation of PD30 (LSCM); assay type: cell-based, Chinese hamster; settings: pH 7.4, 37° C., 30 minutes; PD30 1 mg/mL, free dyes 0.01 mg/mL
Procedure: (§1) CHO or HepG2 cells (80,000 cells/mL) were seeded into Willco dishes and incubated overnight (24 hours) at 37° C. in a humidity controlled incubator in an air atmosphere supplemented with 5% CO2.
(§2) The cells were then washed three times with 2 mL D-PBS (Sigma, Poole, Dorset, UK) to remove excess serum. 2 mL of PD30 at a concentration of 1 mg/mL in D-PBS (pH 7.4) was added, and the cells incubated for 10 minutes at 37° C. in a humidity controlled incubator in an air atmosphere supplemented with 5% CO2.
(§3) Controls were prepared similarly, by the addition of 2 mL of bis-amino Cy3 at a concentration of 0.01 mg/mL in D-PBS (pH 7.4), or 2 mL of bis-sulphonic acid Cy3 at a concentration of 0.01 mg/mL in D-PBS (pH 7.4), followed by incubation for 10 minutes at 37° C. in a humidity controlled incubator in an air atmosphere supplemented with 5% CO2.
(§4) Laser Scanning Confocal Microscopy (LSCM) images were then obtained at 10 minute intervals, using an Olympus FV300 LSCM (Department of Chemical Engineering, University of Cambridge, Cambridge, Cambridgeshire, UK). The cells remained on the microscope for the duration of the imaging experiments.

[2] = system: HepG2 cells; test: Uptake and internalisation of PD30 (LSCM); assay type: cell-based, Human; settings: pH 7.4, 37° C., 30 minutes; PD30 1 mg/mL, bis-amino Cy3 0.01 mg/mL
Procedure: as §1, §2, §3, §4

[3] = Spectrophotometric titration with HCl; assay type: physicochemical; settings: read-out: pKa of the bis-amino groups
Procedure: Aqueous solutions of polymers were titrated by with 1.0 N HCl delivered to an Aminco-SDP-125 spectrofluorimeter, equipped with a flow through cell, from a titration vessel, via a peristaltic pump.
Spectrophotometric titrations were carried out for a mixture of poly(L-lysine iso-phthalamide) at a concentration of 0.5 g/l and free bis-amino Cy3 at a fluorophore concentration of 0.26 mM (0.1 g/l), which yields the maximum emission intensity for this polymer/fluorophore combination.

[4] = system: MCF7 cells; test: Polymer-conjugated doxorubicin uptake (flow cytometry); assay type: cell-based, human; settings: 2 mM doxorubicin or equivalent; for uptake into cells: serum-free medium
Procedure: (§5) Control solutions, containing polymer (with no doxorubicin) and medium alone were also prepared. […] Samples (1 mL) of each test solution were placed in Eppindorf centrifuge tubes and placed in an incubator at 37° C. under a 5% CO2 atmosphere. 2×10^6 cells of each type were suspended in 300 μL of cell culture media (10% foetal calf serum, 2 mM L-Glutamine, 100 U/mL penicillin and 100 μg/mL streptomycin) and incubated at 37° C. under a 5% CO2 atmosphere. The study was initiated by adding 10 μL of cells to each test sample. After selected exposure times, the cells were pelleted by centrifuge and placed on ice. The cells were then re-suspended in phosphate buffer and analysed using a flow cytometer gated to count […] (approximately 10% of the total cell count). A histogram of fluorescence intensity vs. number of events, and the median value of fluorescence intensity, was recorded for each sample. Background fluorescence for cells alone, or for cells with DMSO, was subtracted from the corresponding test samples.

[5] = system: MCF7/MXR cells; test: as above; assay type: cell-based, human; settings: 2 mM doxorubicin or equivalent; for uptake into cells: serum-free medium
Procedure: as §5

[6] = system: MCF7 cells; settings: 5 days
Procedure: (§6) Subsequently, a standard MTT (3-(4,5-dimethylthiazol-2-yl)-2,5-diphenyl-2H-tetrazolium bromide) assay was performed in order to assess cell viability.
(§7) The total DMSO concentration was adjusted to 1% by volume, and the cells incubated at 37° C. under a 5% CO2 atmosphere for 5 days. […] Subsequently, a standard MTT assay was performed in order to assess cell viability.

[7] = system: MCF7/MXR cells; settings: 5 days
Procedure: as §6, §7

[8] = at 25° C.; cited from earlier work
[9] = system: CHO cells; test: Interaction of PD20 with CHO cells at pH 7.4 and pH 5.5 (fluorescence microscopy); assay type: cell-based, Chinese hamster; settings: 30 minute incubation at 37° C.
Procedure: A 2 mL suspension of CHO cells (10^5 cells/mL) was seeded into WilCo dishes (Intracel, Royston, UK) and incubated overnight (24 hours) at 37° C. in a humidity controlled incubator in an air atmosphere supplemented with 5% CO2.
The CHO cells were then washed three times with 100 μl of D-PBS (Sigma, Poole, Dorset, UK) to remove excess serum. 2 mL of PD20 (1 mg/mL) in D-PBS (Sigma, Poole, Dorset, UK) at pH 7.4 or titrated to pH 5.5 with 0.1 M HCl was then added to the Willco dishes.
The dishes were incubated for 30 minutes, the PD20 removed (by aspiration) and the cells washed three times with 2 mL D-PBS (Sigma, Poole, Dorset, UK) adjusted to pH 7.4 or pH 5.5 with 1.0 M HCl.
The CHO cells were then re-suspended in 2 mL of D-PBS at pH 7.4 or titrated to pH 5.5 with 0.1 M HCl and fluorescent photomicrogram images obtained on a Laser Scanning Confocal Zeiss LSM410 microscope (λex 535 nm, λem 570 nm) with a ×20 magnification lens (Amersham Biosciences, Cardiff, UK).
Phase contrast images of the CHO cells were obtained on the same microscope in non-fluorescence mode.

[10] = system: CHO cells; test: Interaction of PD20 with CHO cells at pH 7.4, 6.0 or 5.0 (confocal time course); assay type: cell-based, Chinese hamster
Procedure: CHO cells (80,000/mL) were seeded into WilCo dishes and incubated overnight (24 hours) at 37° C. in a humidity controlled incubator in an air atmosphere supplemented with 5% CO2.
The CHO cells were then washed three times with 2 mL D-PBS (Sigma, Poole, Dorset, UK) to remove excess serum and incubated with 2 mL PD20 (1 mg/mL) in serum-free medium (F12 Nutrient Ham Mixture, Sigma, Poole, Dorset, UK) titrated to pH 7.4, 6.0, or 5.0 with 0.1 M HCl.
The CHO cells were then incubated for 10 minutes and washed three times with 2 mL D PBS (pH 7.4, 6.0, or 5.0). 2 mL of fresh D-PBS at the required pH (pH 7.4, 6.0, or 5.0) was added to each dish and the CHO cells were then imaged on a Zeiss LSM410 confocal microscope (Amersham Biosciences, Cardiff, UK) for 1 hour at 10 minute intervals (to reduce photobleaching and cell exposure to the laser). The cells were maintained at 37° C. on an integral heater stage.
The confocal microscope images were quantified using Metamorph™ software to give the fluorescence intensity.

[11] = system: HepG2 cells; test: Co-localisation of PD20 with FITC-Alexa Fluor 488; assay type: cell-based, Human; settings: 1 mg/mL, 15 minutes, pH 7.4
Procedure: HepG2 cells (80,000/mL) were seeded into WilCo dishes, and incubated overnight (24 hours) at 37° C. in a humidity controlled incubator in an air atmosphere supplemented with 5% CO2.
The HepG2 cells were then incubated for a period of 15 minutes with a mixture of PD20 at a concentration of 1 mg/mL and the endosomal labelling fluorophore FITC-Alexa Fluor 488 (Cambridge Biosciences, Cambridge, UK) at a concentration of 50 μg/mL in serum free medium (Dulbecco's Modified Eagle Medium, DMEM) appropriate for HepG2 cells (total volume 2 mL) at pH 7.4.
The supernatant was then removed and the cells washed three times with 2 mL DMEM. 2 mL of fresh D-PBS was added to each dish and the CHO cells were then imaged on a Zeiss LSM410 confocal microscope (λex 535 nm, λem 570 nm for PD20, λex 495 nm, λem 518 nm for FITC Alexa Fluor 488) (Amersham Biosciences, Cardiff, UK).

Row | Compound | subcellular localisation after uptake [1] | nuclear staining [2] | subcellular localisation after uptake [2] | effect of 1% DMSO on uptake [4] | uptake into cells [4] | effect of 1% DMSO on uptake [5] | uptake into cells [5] | further results
1 | CCN1/C(=C/C=C/C2=[N+](CC)c3ccc(CN)cc3C2(C)C)C(C)(C)c2cc(CN)ccc21 [bis-amino Cy3, reference compound] | localised in the endosome | No nuclear staining | localised in the endosome | – | – | – | – | pKa [3]: 9.5
2 | COc1cccc2c1C(=O)c1c(O)c3c(c(O)c1C2=O)C[C@@](O)(C(=O)CO)C[C@@H]3O[C@H]1C[C@H](N)[C@H](O)[C@H](C)O1 [doxorubicin, reference compound] | – | – | – | significantly enhances | taken up into cells | significantly enhances | taken up into cells | cytotoxic effect ([6]; 1% by volume of DMSO): significant cytotoxic effects; cytotoxic effect ([6]; without DMSO): significant cytotoxic effects; cytotoxic effect ([7]; 1% by volume of DMSO): significant cytotoxic effects; cytotoxic effect ([7]; without DMSO): significant cytotoxic effects
3 | NCCCC[C@H](N)C(=O)O [lysine] | – | – | – | – | – | – | – | pKa [8]: about 2.18
4 | Poly(L-lysine-co-Cy3-iso-phthalamide) [PD20] | – | – | – | – | – | – | – | adsorption onto the extracellular membrane of CHO cells ([9]; pH 5.5, 1 mg/mL): extensive adsorption; adsorption onto the membrane of CHO cells ([9]; pH 7.4, 1 mg/mL): weakly adsorbed; initial relative fluorescence intensity of cells at pH 6.0 and pH 5.0 versus pH 7.4 ([10]; 1 mg/mL): more than three times larger; time at which fluorescence intensity peaked ([10]; pH 5.0, 1 mg/mL): 20 min; time at which fluorescence intensity peaked ([10]; pH 6.0, 1 mg/mL): 30 min; relative fluorescence intensity of the cells with time ([10]; pH 7.4, 1 mg/mL): gradual increase; co-localisation with endosomal stain FITC-Alexa Fluor 488 [11]: uptake of the PD20 into the endosomal compartment
5 | Poly(L-lysine-co-Cy3-iso-phthalamide) [PD30] | localised in the nucleus | heavy staining in the nucleus; also recorded: extensive nuclear staining | localised in the nucleus | – | – | – | – | nuclear staining [1]: heavily stained; also recorded: clearly associated with the nucleus
6 | poly(lysine iso-phthalamide-co-lysine DOX iso-phthalamide) [polymer-conjugated doxorubicin] | – | – | – | little effect | taken up into cells | little effect | taken up into cells | –
